# From US20180228861A1, “COMPOSITION FOR TREATING DIABETES AND DYSLIPIDEMIA OBTAINED FROM THE EXTRACT OF COSTUS PICTUS D.DON PLANT AND A METHOD OF PREPARING THE SAME” (ARJUNA NATURAL EXTRACTS, LTD., priority 2012, published 2018)
# Legend:
# Type in all cases: in vivo
# [1] = system: high fat diet-induced insulin resistance model with C57/BL 6J mice; experiment: Blood glucose in high fat diet-induced insulin resistance model; conditions: HFD mice, end of experimental period; extracts 40 mg/kg orally for 6 weeks, metformin as standard drug
# Experimental: (§1) The study was designed to evaluate the effect of different fractions of Costus pictus D. Don on high fat-induced resistance Type 2diabetic model (HFD). Six week-old C57B1/6J mice were allowed free access to food and water. They were housed under identical standard conditions. The animals were kept for acclimatization for a period of 7 days. After 7 days, the mice were randomly divided into six groups of six mice each. The normal control group was treated with normal regular diet and the rest of the animals were fed with high fat diet for 6 weeks. After 6 weeks, methanolic extract of fresh leaves of Costus pictus D. Don, and the extract had low oxalic acid and/or oxalates content, silica purified ethyl acetate extract of methanolic extract of fresh leaves of Costus pictus D. Don where the extract had low oxalic acid and/or oxalates content and ethyl acetate extract of 90% methanolic extract of fresh leaves of Costus pictus D. Don where the extract had low oxalic acid and/or oxalates content were administered at 40 mg/kg p.o. for 6 consecutive weeks. The experimental design was as follows:
# (§2) Body weights were determined biweekly. At the end of experimental period, blood samples were collected to determine plasma glucose, insulin, leptin, glycosylated hemoglobin, triglycerides, total cholesterol, LDL, HDL and VLDL.
# [2] = system: high fat diet-induced insulin resistance model with C57/BL 6J mice; experiment: Serum insulin and glycosylated hemoglobin in high fat diet-induced insulin resistance model; conditions: high fat diet induced diabetes mellitus, extracts 40 mg/kg orally for 6 weeks, metformin as standard drug
# Experimental: as §1, §2
# [3] = system: high fat diet-induced insulin resistance model with C57/BL 6J mice; experiment: Body weight in high fat diet-induced insulin resistance model
# Description: Evaluation of effect of different fractions of Costus pictus D. Don on high fat diet-induced insulin resistance model with C57/BL 6J mice.
# as §1
# Group 3—HFD for 6 weeks and Standard drug treated group for 6 weeks—metformin.
# Group 4—HFD for 6 weeks and methanolic extract of fresh leaves of Costus pictus D. Don where the extract had low oxalic acid and/or oxalates content (Sample 2 prepared as per example 1) at 40 mg/kg orally for 6 weeks.
# Group 5—HFD for 6 weeks and silica purified ethyl acetate extract of 90% methanolic extract of fresh leaves of Costus pictus D. Don where the extract had low oxalic acid and/or oxalates content (Sample 5 prepared as per example 4) at 40 mg/kg orally for 6 weeks.
# Group 6—HFD for 6 weeks and ethyl acetate extract of 90% methanol extract of fresh leaves of Costus pictus D. Don where the extract had low oxalic acid and/or oxalates content (Sample 4 prepared as per example 3) at 40 mg/kg orally for 6 weeks.
# as §2
# [4] = system: high fat diet-induced insulin resistance model with C57/BL 6J mice; experiment: Lipid profile in high fat diet-induced insulin resistance model; conditions: high fat diet induced diabetes mellitus, extracts 40 mg/kg orally for 6 weeks, metformin as standard drug
# Experimental: The study was designed to evaluate the effect of different fractions of Costus pictus D. Don on high fat-induced resistance Type 2diabetic model (HFD). Six week-old C57B1/6J mice were allowed free access to food and water. They were housed under identical standard conditions. The animals were kept for acclimatization for a period of 7 days. After 7 days, the mice were randomly divided into six groups of six mice each. The normal control group was treated with normal regular diet and the rest of the animals were fed with high fat diet for 6 weeks. […] The experimental design was as follows:
# as §2
smiles,measurement,setting,value
CN(C)C(=N)N=C(N)N [metformin],Blood glucose,[1],100 mg/dL
same,Glycosylated Hb,[2],0.5 % of total Hb
same,Insulin,[2]; serum,1.7 ng/mL
same,"Body weight, week 0","[3]; C57/BL 6J mice on high fat diet, week 0, before treatment",15 grams
same,"Body weight, week 2","[3]; C57/BL 6J mice on high fat diet, week 2, before treatment",30 grams
same,"Body weight, week 4","[3]; C57/BL 6J mice on high fat diet, week 4, before treatment",46 grams
same,"Body weight, week 6","[3]; C57/BL 6J mice on high fat diet, week 6, start of treatment",61 grams
same,"Body weight, week 8","[3]; HFD mice, week 8, extracts 40 mg/kg orally from week 6, metformin as standard drug",48 grams
same,"Body weight, week 10","[3]; HFD mice, week 10, extracts 40 mg/kg orally from week 6, metformin as standard drug",35 grams
same,"Body weight, week 12","[3]; HFD mice, week 12, extracts 40 mg/kg orally from week 6, metformin as standard drug",35 grams
same,HDL,[4],99 mg/dL
same,LDL,[4],17 mg/dL
same,VLDL,[4],6 mg/dL
same,TC,[4]; total cholesterol,122 mg/dL
same,TG,[4]; triglycerides,30 mg/dL
